In patent publication US20240316047A1, “INHIBITORS OF RNA HELICASE DHX9 AND USES THEREOF” (ACCENT THERAPEUTICS, INC., priority 2022, published 2024):

Molecular target: Human recombinant DHX9 protein (Homo sapiens (Human), UniProt Q08211)
Experiment: DHX9 ATPase assay (ADP-Glo)
Type: biochemical
Settings: for IC50: read-out: DHX9 Biochemical Inflection Point

Sequence of Human recombinant DHX9 protein (Q08211 whole entry): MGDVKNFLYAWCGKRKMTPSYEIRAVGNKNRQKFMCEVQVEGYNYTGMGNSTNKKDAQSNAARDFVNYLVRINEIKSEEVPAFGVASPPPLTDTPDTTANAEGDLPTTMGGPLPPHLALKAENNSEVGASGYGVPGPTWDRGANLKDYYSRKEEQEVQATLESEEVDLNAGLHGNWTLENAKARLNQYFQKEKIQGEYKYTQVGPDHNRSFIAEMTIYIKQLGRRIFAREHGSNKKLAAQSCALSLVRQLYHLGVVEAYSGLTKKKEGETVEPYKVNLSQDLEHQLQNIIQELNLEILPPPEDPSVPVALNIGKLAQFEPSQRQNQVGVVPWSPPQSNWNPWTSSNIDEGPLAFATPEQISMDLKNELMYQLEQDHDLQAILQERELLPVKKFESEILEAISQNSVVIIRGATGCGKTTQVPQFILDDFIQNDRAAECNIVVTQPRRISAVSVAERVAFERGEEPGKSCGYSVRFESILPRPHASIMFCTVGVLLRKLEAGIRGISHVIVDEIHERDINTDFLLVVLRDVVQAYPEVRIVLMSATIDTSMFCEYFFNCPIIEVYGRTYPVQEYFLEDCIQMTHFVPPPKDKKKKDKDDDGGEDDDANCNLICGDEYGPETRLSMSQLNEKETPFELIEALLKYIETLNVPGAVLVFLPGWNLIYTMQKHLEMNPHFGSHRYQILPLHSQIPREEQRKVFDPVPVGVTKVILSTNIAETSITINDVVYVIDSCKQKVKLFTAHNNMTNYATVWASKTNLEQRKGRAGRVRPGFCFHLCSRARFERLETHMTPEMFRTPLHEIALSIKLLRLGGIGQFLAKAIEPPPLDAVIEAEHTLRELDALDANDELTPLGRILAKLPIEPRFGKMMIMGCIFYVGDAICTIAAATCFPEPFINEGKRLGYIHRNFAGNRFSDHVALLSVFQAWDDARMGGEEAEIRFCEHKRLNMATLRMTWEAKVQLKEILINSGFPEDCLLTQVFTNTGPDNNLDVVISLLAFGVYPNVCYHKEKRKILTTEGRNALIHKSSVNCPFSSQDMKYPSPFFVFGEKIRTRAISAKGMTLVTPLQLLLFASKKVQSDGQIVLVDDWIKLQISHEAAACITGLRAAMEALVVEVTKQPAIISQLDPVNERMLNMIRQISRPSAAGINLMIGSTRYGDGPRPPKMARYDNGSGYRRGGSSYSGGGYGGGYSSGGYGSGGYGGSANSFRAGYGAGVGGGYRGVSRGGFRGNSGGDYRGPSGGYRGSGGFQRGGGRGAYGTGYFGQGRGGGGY

| DHX9 Biochemical Max Inhibition | IC50 [nM] | Structure (SMILES) |
| --- | --- | --- |
| 88.8% |  | COc1cnc(-c2cc(C(=O)Nc3cc(Cl)cc(NS(C)(=O)=O)c3)sc2C)c(C)c1 [Example 361] |
| 88.6% | 44.3 | Cc1sc(C(=O)Nc2cc(Cl)cc(NS(C)(=O)=O)c2)cc1-c1c(F)cncc1F [Example 362] |
| 94.3% | 25.2 | Cn1cc(C(=O)Nc2cc(Cl)cc(NS(C)(=O)=O)c2)cc1-c1ncc(F)cc1OC(F)F [Example 363] |
| 79.8% | 15.6 | COc1cnc(-c2cc(C(=O)Nc3cc(Cl)cc(NS(C)(=O)=O)c3)sc2C)c(Cl)c1 [Example 364] |
| 78.7% | 20.5 | CCOc1cnc(-c2cc(C(=O)Nc3cc(Cl)cc(NS(=O)(=O)CC)c3)sc2C)nc1 [Example 365] |
| 76.2% | 46.7 | CCS(=O)(=O)Nc1cc(Cl)cc(NC(=O)c2cc(-c3ncc(C(F)(F)F)cn3)c(C)s2)c1 [Example 366] |
| 63.5% | 55.9 | Cc1sc(C(=O)Nc2cc(Cl)cc(NS(C)(=O)=O)c2)cc1-c1ncc(C(F)(F)F)cc1C#N [Example 367] |
| 67.3% | 118 | Cc1sc(C(=O)Nc2cc(Cl)cc(NS(C)(=O)=O)c2)cc1-c1ncc(C(F)(F)F)cc1F [Example 368] |
| 61.5% | 57.6 | CS(=O)(=O)Nc1cc(Cl)cc(NC(=O)c2cc(-c3ncc(C(F)(F)F)cn3)cs2)c1 [Example 369] |
| 64.3% |  | CS(=O)(=O)Nc1cc(Cl)cc(NC(=O)c2cc(-c3ccc(C(F)(F)F)cn3)cs2)c1 [Example 370] |
| 65.3% | 140 | CS(=O)(=O)Nc1cc(Cl)cc(NC(=O)c2cc(-c3ncc(C(F)(F)F)cc3F)cs2)c1 [Example 371] |
| 49.2% | 402 | CCCS(=O)(=O)Nc1cc(Cl)cc(NC(=O)c2cc(-c3ncccc3C)cs2)c1 [Example 372] |
| 49.9% |  | Cc1cccnc1-c1csc(C(=O)Nc2cc(Cl)cc(NS(=O)(=O)C(C)C)c2)c1 [Example 373] |
| 60% | 579 | Cc1cccnc1-c1csc(C(=O)Nc2cc(Cl)cc(N(C)S(C)(=O)=O)c2)c1 [Example 374] |
| 64.6% | 34.6 | Cc1sc(C(=O)Nc2cc(Cl)cc(NS(C)(=O)=O)c2)cc1-c1ncc(C#N)cc1F [Example 375] |
| 64.1% |  | Cc1cc(C#N)cnc1-c1cc(C(=O)Nc2cc(Cl)cc(NS(C)(=O)=O)c2)sc1C [Example 376] |
| 70.6% | 21.2 | Cc1sc(C(=O)Nc2cc(Cl)cc(NS(C)(=O)=O)c2)cc1-c1ccc(C#N)cn1 [Example 377] |
| 80.9% | 874 | Cc1sc(C(=O)Nc2cc(Cl)cc(NS(C)(=O)=O)c2)cc1-c1c(F)cc(F)cc1F [Example 378] |
| 65.4% | 41.8 | CC(C)(C)Oc1cnc(-c2csc(C(=O)Nc3cc(Cl)cc(NS(C)(=O)=O)c3)c2)nc1 [Example 379] |
| 68.7% | 33.5 | Cc1sc(C(=O)Nc2cc(Cl)cc(NS(C)(=O)=O)c2)cc1-c1ccc(OC(C)(C)C)cn1 [Example 380] |

| DHX9 Biochemical Max Inhibition | IC50 [nM] | Structure (SMILES) |
| --- | --- | --- |
| 67.4% |  | Cc1sc(C(=O)Nc2cc(Cl)cc(NS(C)(=O)=O)c2)cc1-c1ncc(OC(C)(C)C)cc1F [Example 381] |
| 75.9% |  | CS(=O)(=O)Nc1cc(Cl)cc(NC(=O)c2cc(-c3ncccc3CC(=O)N3CCC3)cs2)c1 [Example 382] |
| 78.3% | 10.1 | CS(=O)(=O)Nc1cc(Cl)cc(NC(=O)c2cc(-c3ncccc3CC(=O)N3CCCC3)cs2)c1 [Example 383] |
| 75.5% | 39 | CS(=O)(=O)Nc1cc(Cl)cc(NC(=O)c2cc(-c3ncccc3Cc3ncccn3)cs2)c1 [Example 384] |
| 78.1% | 83.8 | Cc1sc(C(=O)Nc2cc(Cl)cc(NS(C)(=O)=O)c2)cc1-c1ncccc1CC(=O)N(C)C [Example 385] |
| 59.2% | 420 | Cc1cccnc1-c1ccc(C(=O)Nc2cc(Cl)cc(NS(C)(=O)=O)c2)s1 [Example 386] |
| 58.2% | 186 | CS(=O)(=O)Nc1cc(Cl)cc(NC(=O)c2cnn(-c3ncccc3-c3cncnc3)c2)c1 [Example 387] |
| 52.8% | 381 | CS(=O)(=O)Nc1cc(Cl)cc(NC(=O)c2cnn(-c3cnc(N4CCOCC4)cn3)c2)c1 [Example 388] |
| 82.3% | 19.5 | Cc1cc(C(=O)Nc2cc(Cl)cc(NS(C)(=O)=O)c2)cn1-c1ccc(Cl)cn1 [Example 389] |
| 80.4% | 1.5 | Cc1cc(C(=O)Nc2cc(Cl)cc(NS(C)(=O)=O)c2)cn1-c1ccc(F)cn1 [Example 390] |
| 78.5 | 8.9 | COc1ccc(-n2cc(C(=O)Nc3cc(Cl)cc(NS(C)(=O)=O)c3)cc2C)nc1 [Example 391] |
| 79.3 | 2.9 | CS(=O)(=O)Nc1cc(Cl)cc(NC(=O)c2cnn(-c3ncccc3-c3cncc(F)c3)c2)c1 [Example 392] |
| 77 | 2.3 | COc1cc(F)cnc1-n1cc(C(=O)Nc2cc(Cl)cc(NS(C)(=O)=O)c2)cc1C [Example 393] |
| 73.7 | 24.8 | CS(=O)(=O)Nc1cc(Cl)cc(NC(=O)c2cnn(-c3ncc(N4CCOCC4)cn3)c2)c1 [Example 394] |
| 77.1 | 6.6 | Cc1cc(C(=O)Nc2cc(Cl)cc(NS(C)(=O)=O)c2)cn1-c1ccc(N2CC(F)C2)cn1 [Example 395] |
| 68.9 | 3.6 | Cc1cc(C(=O)Nc2cc(Cl)cc(NS(C)(=O)=O)c2)cn1-c1ccc(N2CCC(F)(F)C2)cn1 [Example 396] |
| 77.2 | 10.2 | Cc1cc(C(=O)Nc2cc(Cl)cc(NS(C)(=O)=O)c2)cn1-c1ccc(N2CCC2)cn1 [Example 397] |
| 65.9 | 8.8 | Cc1cc(C(=O)Nc2cc(Cl)cc(NS(C)(=O)=O)c2)cn1-c1ncc(N2CCC2)cn1 [Example 398] |
| 72.1 | 11.4 | Cc1cc(C(=O)Nc2cc(Cl)cc(NS(C)(=O)=O)c2)cn1-c1ccc(N2CC(F)(F)C2)cn1 [Example 399] |
| 70.3 | 10.6 | Cc1cc(C(=O)Nc2cc(Cl)cc(NS(C)(=O)=O)c2)cn1-c1ncc(N2CCCC2=O)cn1 [Example 401] |

| DHX9 Biochemical Max Inhibition | IC50 [nM] | Structure (SMILES) |
| --- | --- | --- |
| 76.8 | 45.1 | Cn1cc(C(=O)Nc2cc(Cl)cc(NS(C)(=O)=O)c2)cc1-c1ccc(N2CCCC2)cn1 [Example 402] |
| 84.5 | 186 | CCS(=O)(=O)Nc1cc(Cl)cc(NC(=O)c2cc(-c3ccc(N4CC(F)(F)C4)cn3)n(C)c2)c1 [Example 403] |
| 92 | 84.5 | COC1CN(c2cnc(-n3cc(C(=O)Nc4cc(Cl)cc(NS(C)(=O)=O)c4)cc3C)nc2)C1 [Example 404] |
| 93.9 | 5.2 | Cc1cc(C(=O)Nc2cc(Cl)cc(NS(C)(=O)=O)c2)cn1-c1ccc(N2CC3COCC3C2)cn1 (stereo not shown) [Example 405] |
| 75.7 | 55.1 | Cc1cc(C(=O)Nc2cc(Cl)cc(NS(C)(=O)=O)c2)cn1-c1ncc(N2CC(F)(F)C2)cc1Cl [Example 406] |
| 105 | 203 | Cc1cc(C(=O)Nc2cc(Cl)cc(NS(C)(=O)=O)c2)cn1-c1ncc(N2CC(F)(F)C2)cc1C(F)(F)F [Example 407] |
| 65.7 | 29.7 | Cc1cc(C(=O)Nc2cc(Cl)cc(NS(C)(=O)=O)c2)cn1-c1ncc(N2CCC(F)(F)C2)cn1 [Example 409] |
| 69.3 | 20.5 | Cc1cc(C(=O)Nc2cc(Cl)cc(NS(C)(=O)=O)c2)cn1-c1ccc(N2CCCC2=O)cn1 [Example 410] |
| 74.2 | 41.6 | Cc1cc(C(=O)Nc2cc(Cl)cc(NS(C)(=O)=O)c2)cn1-c1ccc(N2CC3CC3C2)cn1 (stereo not shown) [Example 411] |
| 72.2 | 10.5 | Cc1cc(C(=O)Nc2cc(Cl)cc(NS(C)(=O)=O)c2)cn1-c1ncc(N2CCOCC2)cc1F [Example 412] |
| 64.5 | 13.3 | Cc1cc(C(=O)Nc2cc(Cl)cc(NS(C)(=O)=O)c2)cn1-c1ncc(N2CC3(C2)CC(F)(F)C3)cn1 [Example 413] |
| 58.3 | 50.6 | Cc1cc(C(=O)Nc2cc(Cl)cc(NS(C)(=O)=O)c2)cn1-c1ncc(N2CCC3(C2)CC3(F)F)cc1F (stereo not shown) [Example 414] |
| 99.9 | 15.4 | Cc1cc(C(=O)Nc2cc(Cl)cc(NS(C)(=O)=O)c2)cn1-c1ncc(N2CC(F)(F)C2)cc1C#N [Example 415] |
| 81.8 | 13.5 | Cc1cc(C(=O)Nc2cc(Cl)cc(NS(C)(=O)=O)c2)cn1-c1ccc(N2CCOC2=O)cn1 [Example 416] |
| 70.1 | 33.1 | Cc1cc(C(=O)Nc2cc(Cl)cc(NS(C)(=O)=O)c2)cn1-c1ncc(N2CCOC2=O)cn1 [Example 417] |
| 70.25 | 17 | Cc1cc(C(=O)Nc2cc(Cl)cc(NS(C)(=O)=O)c2)cn1-c1ncc(N2CC(F)(F)C2)cn1 [Example 418] |
| 78.6 | 18.6 | Cc1cc(N2CC(F)(F)C2)cnc1-n1cc(C(=O)Nc2cc(Cl)cc(NS(C)(=O)=O)c2)cc1C [Example 419] |
| 95 | 17.7 | Cc1cc(C(=O)Nc2cc(Cl)cc(NS(C)(=O)=O)c2)cn1-c1ncc(N2CC(F)(F)C2)cc1F [Example 420] |
| 81.6 | 10.8 | COc1cc(N2CC(F)(F)C2)cnc1-n1cc(C(=O)Nc2cc(Cl)cc(NS(C)(=O)=O)c2)cc1C [Example 421] |
